Experimental data reported in patent publication US10287305B2, “Substituted piperidine compound and use thereof” (Takeda Pharmaceutical Company Limited, priority 2016, dated 2019).

Target: human orexin type 2 receptor (hOX2R) (Homo sapiens (Human), UniProt O43614)
Experiment: Measurement of orexin type 2 receptor agonist activity (Experimental Example 2-1, FLIPR TETRA, intracellular Ca2+)
Format: cell-based
Settings: CHO dhfr- cells expressing hOX2R; for Emax: read-out: Emax (%); for Emax at 30 µM: value at 30 uM concentration, orexin B as full agonist = 100%
[1] = agonist activity, 10 nM human orexin B = 100%

Chain of human orexin type 2 receptor (hOX2R) (O43614 whole entry): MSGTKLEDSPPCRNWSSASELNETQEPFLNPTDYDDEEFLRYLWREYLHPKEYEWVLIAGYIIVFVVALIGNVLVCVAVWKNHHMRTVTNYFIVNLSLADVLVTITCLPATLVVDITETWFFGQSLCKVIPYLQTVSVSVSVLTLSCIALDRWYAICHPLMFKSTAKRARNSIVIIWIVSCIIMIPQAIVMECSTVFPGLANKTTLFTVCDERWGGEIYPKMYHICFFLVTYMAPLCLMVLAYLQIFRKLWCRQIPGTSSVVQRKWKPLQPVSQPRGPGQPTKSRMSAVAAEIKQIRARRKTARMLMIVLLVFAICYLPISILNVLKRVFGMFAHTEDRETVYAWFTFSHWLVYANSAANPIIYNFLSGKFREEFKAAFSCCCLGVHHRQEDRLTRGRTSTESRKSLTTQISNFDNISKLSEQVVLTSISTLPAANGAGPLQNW

Structure (SMILES) | EC50 (FLIPR TETRA, Fluo-4AM) [nM] | Emax (FLIPR TETRA, Fluo-4AM) [%] | EC50 [1] [nM] | Emax at 30 µM [%]
COC(=O)N1CCC[C@H](NS(C)(=O)=O)[C@@H]1CO[C@H]1CC[C@@H](c2ccccc2Cl)CC1 (relative stereo) [Example 335, methyl cis-2-(((cis-4-(2-chlorophenyl)cyclohexyl)oxy)-methyl)-3-((methylsulfonyl)amino)piperidine-1-carboxylate] | 6.1 | 101 |  | 
CS(=O)(=O)N[C@H]1CCCN(C(=O)[C@@H]2CCOC2)[C@H]1CO[C@H]1CC[C@@H](c2ccccc2)CC1 [Example 150, N-(cis-2-(((cis-4-phenylcyclohexyl)oxy)methyl)-1-((3R)-tetrahydrofuran-3-ylcarbonyl)piperidin-3-yl)methanesulfonamide] | 30 | 99 |  | 
CCCC(=O)N1CCC[C@H](NS(C)(=O)=O)[C@@H]1CO[C@H]1CC[C@@H](C(C)C)CC1 (relative stereo) [Example 35, N-(cis-1-butyryl-2-(((cis-4-isopropylcyclohexyl)oxy)methyl)piperidin-3-yl)methanesulfonamide] |  |  | 93 | 99
CC(C)[C@H]1CC[C@@H](OC[C@H]2[C@@H](NS(C)(=O)=O)CCCN2C(=O)C2CCC(=O)N2)CC1 (stereo partly drawn) [Example 87, N-(cis-2-(((cis-4-isopropylcyclohexyl)oxy)methyl)-1-(5-oxoprolyl)piperidin-3-yl)methanesulfonamide] |  |  | 4900 | 82
CS(=O)(=O)N[C@H]1CCCN(C(=O)CO)[C@H]1CO[C@H]1CC[C@@H](c2cccc(F)c2F)CC1 [Example 25, N-((2R,3S)-2-(((cis-4-(2,3-difluorophenyl)cyclohexyl)oxy)methyl)-1-glycoloylpiperidin-3-yl)methanesulfonamide] |  |  | 7.9 | 94
CS(=O)(=O)N[C@H]1CCCN(C(=O)C2CCCCC2)[C@H]1COC1CCN(c2ncccn2)CC1 (relative stereo) [Example 208, N-(cis-1-(cyclohexylcarbonyl)-2-(((1-(pyrimidin-2-yl)piperidin-4-yl)oxy)methyl)piperidin-3-yl)methanesulfonamide] | 940 | 93 |  | 
CS(=O)(=O)N[C@H]1CCCN(C(=O)CO)[C@H]1CO[C@H]1CC[C@@H](c2ccccc2C(F)(F)F)CC1 [Example 283, N-((2R,3S)-1-glycoloyl-2-(((cis-4-(2-(trifluoromethyl)phenyl)cyclohexyl)oxy)methyl)piperidin-3-yl)methanesulfonamide] | 8.9 | 95 |  | 
CC1(C)CCC(C(=O)N2CCC[C@H](NS(C)(=O)=O)[C@@H]2COC2CCN(c3ncccn3)CC2)CC1 (relative stereo) [Example 210, N-(cis-1-((4,4-dimethylcyclohexyl)carbonyl)-2-(((1-(pyrimidin-2-yl)piperidin-4-yl)oxy)methyl)piperidin-3-yl)methanesulfonamide] | 3600 | 86 |  | 
CCS(=O)(=O)N[C@H]1CCCN(C(=O)C2CC2)[C@H]1CO[C@H]1CC[C@@H](c2ccccc2)CC1 (relative stereo) [Example 279, N-(cis-1-(cyclopropylcarbonyl)-2-(((cis-4-phenylcyclohexyl)oxy)methyl)piperidin-3-yl)ethanesulfonamide] | 5.2 | 97 |  | 
CS(=O)(=O)N[C@H]1CCCN(C(=O)C2CC2)[C@H]1COC1CCN(c2ccccc2)CC1 (relative stereo) [Example 247, N-(cis-1-(cyclopropylcarbonyl)-2-(((1-phenylpiperidin-4-yl)oxy)methyl)piperidin-3-yl)methanesulfonamide] | 960 | 102 |  | 
COC(=O)N1CCC[C@H](NS(C)(=O)=O)[C@@H]1COC1CCN(c2ccccc2Cl)CC1 (relative stereo) [Example 167, methyl cis-2-(((1-(2-chlorophenyl)piperidin-4-yl)oxy)methyl)-3-((methylsulfonyl)amino)piperidine-1-carboxylate] | 2400 | 83 |  | 
COC(=O)N1CCC[C@H](NS(C)(=O)=O)[C@@H]1CO[C@H]1CC[C@@H](c2c(F)ccc(F)c2F)CC1 [Example 257, methyl (2R,3S)-3-((methylsulfonyl)amino)-2-(((cis-4-(2,3,6-trifluorophenyl)cyclohexyl)oxy)methyl)piperidine-1-carboxylate] |  | 97 |  | 
CCNC(=O)N1CCC[C@H](NS(C)(=O)=O)[C@@H]1CO[C@H]1CC[C@@H](c2ccccc2F)CC1 (relative stereo) [Example 117, cis-N-ethyl-2-(((cis-4-(2-fluorophenyl)cyclohexyl)oxy)-methyl)-3-((methylsulfonyl)amino)piperidine-1-carboxamide] |  |  | 0.12 | 91
COC(=O)N1CCC[C@H](NS(C)(=O)=O)[C@@H]1CO[C@H]1CC[C@@H](c2cccc(F)c2)CC1 [Example 200, methyl (2R,3S)-2-(((cis-4-(3-fluorophenyl)cyclohexyl)oxy)methyl)-3-((methylsulfonyl)amino)piperidine-1-carboxylate] |  | 95 |  | 
CS(=O)(=O)N[C@H]1CCCN(C(=O)C2CC2)[C@H]1CO[C@H]1CC[C@@H](C)CC1 (relative stereo) [Example 197, N-(cis-1-(cyclopropylcarbonyl)-2-(((cis-4-methylcyclohexyl)oxy)methyl)piperidin-3-yl)methanesulfonamide] |  | 90 |  | 
CS(=O)(=O)N[C@H]1CCCN(C(=O)OC2CC2)[C@H]1COC1CCN(c2ccccc2F)CC1 (relative stereo) [Example 290, cyclopropyl cis-2-(((1-(2-fluorophenyl)piperidin-4-yl)oxy)methyl)-3-((methylsulfonyl)amino)piperidine-1-carboxylate] | 3300 | 79 |  | 
CS(=O)(=O)N[C@H]1CCCN[C@H]1CO[C@H]1CC[C@@H](c2ccccc2Cl)CC1 (relative stereo) [Example 332, N-(cis-2-(((cis-4-(2-chlorophenyl)cyclohexyl)oxy)-methyl)piperidin-3-yl)methanesulfonamide] | 610 | 93 |  | 
CCNC(=O)N1CCC[C@H](NS(C)(=O)=O)[C@@H]1COC1CCN(c2ccccc2)CC1 (relative stereo) [Example 123, cis-N-ethyl-3-((methylsulfonyl)amino)-2-(((1-phenylpiperidin-4-yl)oxy)methyl)piperidine-1-carboxamide] | 390 | 120 |  | 
CS(=O)(=O)N[C@H]1CCCN(C(=O)C2CC2(F)F)[C@H]1COC1CCN(c2ccccc2F)CC1 (relative stereo) [Example 225, N-(cis-1-((2,2-difluorocyclopropyl)carbonyl)-2-(((1-(2-fluorophenyl)piperidin-4-yl)oxy)methyl)piperidin-3-yl)methanesulfonamide] | 1000 | 98 |  | 
CS(=O)(=O)N[C@H]1CCCN(C(=O)CC(F)(F)F)[C@H]1CO[C@H]1CC[C@@H](c2ccccc2)CC1 [Example 306, N-((2R,3S)-2-(((cis-4-phenylcyclohexyl)oxy)methyl)-1-(3,3,3-trifluoropropanoyl)piperidin-3-yl)methanesulfonamide] | 13 | 101 |  | 
CC(=O)N1CCC[C@H](NS(C)(=O)=O)[C@@H]1CO[C@H]1C[C@@H](c2ccccc2)C1 (relative stereo) [Example 114, N-(cis-1-acetyl-2-(((cis-3-phenylcyclobutyl)oxy)methyl)-piperidin-3-yl)methanesulfonamidea] |  |  | 3500 | 79
CC(=O)N1CCC[C@H](NS(C)(=O)=O)[C@@H]1CO[C@H]1CC[C@@H](c2ccccc2OC(F)(F)F)CC1 (relative stereo) [Example 293, N-(cis-1-acetyl-2-(((cis-4-(2-(trifluoromethoxy)phenyl)cyclohexyl)oxy)methyl)piperidin-3-yl)methanesulfonamide] | 540 | 78 |  | 
CC(C)(O)C(=O)N1CCC[C@H](NS(C)(=O)=O)[C@@H]1CO[C@H]1CC[C@@H](c2ccccc2)CC1 (relative stereo) [Example 189, N-(cis-1-(2-hydroxy-2-methylpropanoyl)-2-(((cis-4-phenylcyclohexyl)oxy)methyl)piperidin-3-yl)methanesulfonamide] | 78 | 88 |  | 
COC(=O)N1CCC[C@H](NS(C)(=O)=O)[C@@H]1CO[C@H]1CC[C@@H](c2ccccc2F)CC1 [Example 267, methyl (2R,3S)-2-(((cis-4-(2-fluorophenyl)cyclohexyl)oxy)methyl)-3-((methylsulfonyl)amino)piperidine-1-carboxylate] | 3.4 | 94 |  | 
CC(C)[C@H]1CC[C@@H](OC[C@H]2[C@@H](NS(C)(=O)=O)CCCN2C(=O)C2CC(=O)C2)CC1 [Example 91, N-((2R,3S)-2-(((cis-4-isopropylcyclohexyl)oxy)methyl)-1-((3-oxocyclobutyl)carbonyl)piperidin-3-yl)methanesulfonamide] |  |  | 39 | 89
CS(=O)(=O)N[C@H]1CCCN[C@H]1CO[C@H]1CC[C@@H](c2ccccc2C(F)F)CC1 [Example 320, N-((2R,3S)-2-(((cis-4-(2-(difluoromethyl)phenyl)cyclohexyl)-oxy)methyl)piperidin-3-yl)methanesulfonamide] | 2000 | 74 |  | 
CC(=O)N1CCC[C@H](NS(C)(=O)=O)[C@@H]1COC1CCC(F)(c2cccc(F)c2)CC1 (relative stereo) [Example 216, N-(cis-1-acetyl-2-(((4-fluoro-4-(3-fluorophenyl)cyclohexyl)oxy)methyl)piperidin-3-yl)methanesulfonamide] | 210 | 105 |  | 
CS(=O)(=O)N[C@H]1CCCN[C@H]1CO[C@H]1CC[C@@H](c2ccccc2C#N)CC1 (relative stereo) [Example 262, N-(cis-2-(((cis-4-(2-cyanophenyl)cyclohexyl)oxy)methyl)piperidin-3-yl)methanesulfonamide] | 2500 | 94 |  | 
